Reference: patent US8003572B2 (priority 2004, dated 2011)
Each block holds one compound with its values, some of them ahead of it.

Key:
[1] = tested on: C85 colorectal adenocarcinoma cells; assay: Clonogenic assay with C85 colorectal adenocarcinoma cells; type: cell-based, human
Method: Compounds identified by structure based screening were assayed in a clonogenic assay with C85 colorectal adenocarcinoma cells. Briefly, C85 cells were plated at 200 cells per well in six well plates. Seventy-two hours after plating, compounds 05RB, 0BWP, 0FZK, 0RZL, HBS01, 01LX, 0464, 1BJO AND 27NT were added at various concentrations (See Table 1). Colonies were counted 96 hours after treatment and IC50 concentrations determined (Table 1).

[2] = tested on: MCF-7/ADR (adramycin resistance) cell line; assay: MTS cell proliferation assay in MCF-7/ADR; type: cell-based; details: Homo sapiens, NCI/ADR-RES
Method: (§1) In order to determine the IC50 values of HBS01 an MTS assay was performed on MCF-7 and MCF-7/ADR (adramycin resistance) cell lines. Cells were plated in a 96 well plate at 5,000 cells/well. After plating, cells were treated for 96 hours with either HBS01, methotrexate (MTX), doxyrubicin (DOX), or 5-Fluorouracil (5FU) and an MTS assay was performed according to manufacturer's protocol with the CELL TITER 96 AQ non-radioactive cell proliferation assay kit (Promega, Cat. No. G5421). Viable cells were quantitated based on absorbance at 490 nm. […] Thus, HBS01 was an extremely potent inhibitor of MCF-7 and MCF-7Adr proliferation.

[3] = Maximum tolerated dose in mice; details: nude, mouse, in vivo
[4] = tested on: C85 human colorectal cancer cells; assay: C85 colorectal tumors in nude mice; type: in vivo
Method: (§2) C85 human colorectal cancer cell growth was assessed in nude mice (NIH, Cr:(MCr)-Fox1nu(nu/nu homogygous), Taconic Inc., Germantown, N.Y.) treated or pretreated with HBS01 over a 19 day period. Briefly, pretreated animals were administered three daily doses of HBS01 at 17 mg/Kg given on day −3, −2, and −1 prior to tumor cell injection on day 0. No further treatment was given to the pretreated animals. Nude mice were injected in the flanks with 1 million C85 human colorectal cancer cells. Treated animals were treated with daily injections of HBS01 at 17 mg/kg per at days 10, 11, 12, 15, 16 and 17 following appearance of palpable tumors on day 10.
Tumor diameters were measured with calipers every alternate day and tumor volumes were calculated by ½ab^2 where a is the larger diameter (Friedman, H S., et al. Cancer Res. 46, 2827-2833). The results are shown in FIG. 3 as tumor volume in cm^3.

EGFP marked C85 cells = assay: Metastatic growth of EGFP marked C85 cells in nude mice; type: in vivo; details: pre-treated 14.5 mg/kg every 24 hrs for five days; ten days post-C85 tail vein injection
Method: The effect of HBS01 on the metastatic growth of enhanced green fluorescent protein (EGFP) marked C85 cells was assayed in nude mice (NIH, Cr:(MCr)-Fox1nu(nu/nu homogygous), Taconic Inc., Germantown, N.Y.). Briefly, nude mice were pre-treated with 14.5 mg/kg of HBS01 every 24 hrs for five days. At the completion of pre-treatment the pre-treated or control non-treated mice were injected in the tail vein with 1×10^6 EGFP marked C85 cells. Ten days post-C85 injection, the mice were dissected and tumor size assessed based on intravital fluorescence imaging and liver biopsies.

MCF-7 = assay: MTS cell proliferation assay in MCF-7; type: cell-based; details: Homo sapiens, MCF7
Method: as §1

cyclin-B = assay: Ubiquination of cyclin-B in C85 cell lysates (Western blot); type: cell-based; details: C85 cells treated for 24 hrs
Method: The ability of HBS01 to inhibit protein ubiquination of cyclin-B was assayed in C85 cell lines. Briefly, C85 cells were plated at 200 cells per well in six well plates. Cells were either untreated (controls) or treated for 24 hrs with HBS01. After the treatment period, cells were harvested and extracts were prepared from the cells by freeze fracturing in liquid nitrogen in breakage buffer (50 mM Tris pH 7.5, 1 mM DTT, “Complete” protease inhibitor cocktail (Roche, Cat.# 1697498), 10 μM MG132). Roughly […] of total protein extracts in 300 μl of breakage buffer was supplemented with 20 μg of PHH-Ub (HA and His6 tagged Ubiquitin) and incubated at 30° C. for 60 min. 3×SDS-PAGE sample buffer was added to 40 μl of this reaction and boiled for 3 min. The extracts were run on 12% Laemmli gels and Western Blots were performed with anti-cyclin-B antibody (Santa Cruz Biotechnology, Inc., Santa Cruz, Calif.). Results were visualized by ECL, with the ECL plus western blot detection kit (Amersham Biosciences, Piscataway, N.J.) according to manufacturers instructions.

[5] = tested on: MCF-7 breast cancer cells; assay: MCF-7 breast cancer tumors in nude mice; type: in vivo
Method: as §2, with “MCF-7 breast” for “C85 human colorectal”, “31 days.” for “a 19 day period.”, “200,000 MCF-7 breast” for “1 million C85 human colorectal”, “10. Tumor diameters were measured with calipers every alternate day and tumor volumes were calculated by ½ab^2 where a is the larger diameter (Friedman, H S., et al. Cancer Res. 46, 2827-2833). The results are shown in FIG. 4 as tumor volume in cm^3.” for “10.”

[6] = tested on: protein ubiquination pathways; assay: Protein ubiquination in C85 cell lysates (HA-tagged ubiquitin Western blot); type: cell-based; details: C85 cells treated for 24 or 48 hrs
Method: Briefly, C85 cells were plated at 200 cells per well in six well plates.
Cells were either untreated (controls) or treated for 24 or 48 hrs with HBS01. After the treatment period, cells were harvested and extracts were prepared from the cells by freeze fracturing in liquid nitrogen in breakage buffer (50 mM Tris pH 7.5, 1 mM DTT, “Complete” protease inhibitor cocktail (Roche, Cat.# 1697498), 10 μM MG132). Roughly […] of total protein extracts in 300 μl of breakage buffer was supplemented with 20 μg of PHH-Ub (HA and His6 tagged Ubiquitin) and incubated at 30° C. for 60 min. 3×SDS-PAGE sample buffer was added to 40 μl of this reaction and boiled for 3 min. The extracts were run on 12% Laemmli gels that were either stained with Coomassie Blue R-250 or blotted with HRP conjugated 12CA5 monoclonal antibody (Roche, Inc., Indianapolis, Ind.) and visualized by ECL, with the ECL plus western blot detection kit (Amersham Biosciences, Piscataway, N.J.) according to manufacturers instructions.

[7] = Homo sapiens, C85 cells, colonies counted 96 hours after treatment
[8] = pretreated animals, 17 mg/Kg on day -3, -2 and -1 prior to tumor cell injection

IC50 [1, 7]: 600000 nM
Compound: NC(=O)c1ccc([N+](=O)[O-])cc1Cl [Compound 0BWP, 2-Chloro-4-nitrobenzamide]

IC50 [1, 7]: 175000 nM
Compound: Oc1cc(Cl)cnc1O [Compound 0FZK, 5-chloro-2,3-dihydroxypyridine]

IC50 [1, 7]: 50000 nM
Compound: CC1CN(c2ccccc2)NC1=O (centres unmarked) [Compound 0RZL, 1-Phenyl-4-methyl-3-pyrazolidone]

IC50 [1, 7]: 375000 nM
Compound: CC(=O)Nc1ccccc1O [Compound 01LX, 2-Acetamidophenol]

IC50 ([1]; C85 cells, colonies counted 96 hours after treatment): 37500 nM
Compound: Nc1ccc(Nc2ccccc2)cc1 [Compound 05RB, N-Phenyl-4-phenylenediamine]

IC50 [1, 7]: 70000 nM
Compound: Nc1ccc2cn[nH]c2c1 [Compound 0464, 6-AMINOINDAZOLE]

Compound: NCC1CCNCC1 [HBS01, 4-(Aminomethyl)piperidine]
IC50 ([2]; MCF-7Adr, treated for 96 hours, MTS): 30 nM
IC50 ([2]; breast cancer cell line MCF-7Adr): 30 nM
MTD [3]: 1400 mg/kg
tumor growth (tumor volume) [4, 8]: delayed tumor growth
growth of established tumors (tumor volume) ([4]; treated animals, 17 mg/kg daily at days 10, 11, 12, 15, 16 and 17, 17 mg/kg): significantly inhibited the growth of established tumors
metastatic tumors (EGFP marked C85 cells): metastatic tumors were not detectable
IC50 (MCF-7; MCF-7, treated for 96 hours, MTS): 30 nM
IC50 (MCF-7; breast cancer cell line MCF-7): 30 nM
ubiquination of cyclin-B (cyclin-B): selectively inhibited the ubiquination of cyclin-B
onset of tumors (tumor volume) [5, 8]: delayed the onset of MCF-7 tumors
tumor growth (tumor volume) ([5]; treated animals, 17 mg/kg daily at days 10, 11, 12, 15, 16 and 17): significantly inhibited tumor growth
general ubiquitin conjugation (ubiquitin intensities and banding patterns) [6]: general inactivation of the ubiquitin conjugation pathways did not occur
IC50 ([1]; Homo sapiens, C85 cells, colonies counted 96 hours after treatment, * denotes nM): 30 nM
IC50 ([1]; human colon cancer cell line C85): 30 nM
